Laboratory results reported in ChEMBL document CHEMBL3421553, “Design, synthesis, and biological evaluation of benzoselenazole-stilbene hybrids as multi-target-directed anti-cancer agents” (Eur J Med Chem, 2015).
pIC50: −log10 of the molar value. One block for each compound: values may come before it.

Key:
MCF7 = test: Antiproliferative activity against human MCF7 cells assessed as cell viability after 48 hrs by MTT assay; format: functional, cell-based; conditions: MCF7, 48 h
A549 = test: Antiproliferative activity against human A549 cells assessed as cell viability after 48 hrs by MTT assay; format: functional, cell-based; conditions: A549, 48 h
[1] = Antiproliferative activity against human Bel7402 cells assessed as cell viability after 48 hrs by MTT assay; format: functional, cell-based; conditions: Bel-7402, 48 h
HeLa = test: Antiproliferative activity against human HeLa cells assessed as cell viability after 48 hrs by MTT assay; format: functional, cell-based
[2] = Inhibition of rat liver TrxR assessed as increase in absorbance by DTNB assay
[3] = Cell cycle arrest in human Bel7402 cells assessed as cells accumulation at G2/M phase at 0.5 uM after 48 hrs by flow cytometry (reference value: 16.61%); format: functional, cell-based; conditions: Bel-7402
[4] = Cell cycle arrest in human Bel7402 cells assessed as cells accumulation at Sub-G1 phase at 1 uM after 48 hrs by flow cytometry (reference value: 1.47%); format: functional, cell-based; conditions: Bel-7402
Bel-7402 [5] = test: Induction of apoptosis in human Bel7402 cells assessed as necrotic cells at 0.5 uM after 48 hrs by flow cytometry (reference value: 0.19%); format: functional
Bel-7402 [6] = test: Induction of apoptosis in human Bel7402 cells assessed as apoptotic cells at 5 uM after 48 hrs by flow cytometry (reference value: 0.73%); format: functional
Bel-7402 [7] = test: Induction of apoptosis in human Bel7402 cells assessed as detection error cells at 1 uM after 48 hrs by flow cytometry (reference value: 0.43%); format: functional
[8] = Cell cycle arrest in human Bel7402 cells assessed as cells accumulation at G1 phase at 0.5 uM after 48 hrs by flow cytometry (reference value: 62.60%); format: functional, cell-based; conditions: Bel-7402
[9] = Cell cycle arrest in human Bel7402 cells assessed as cells accumulation at Sub-G1 phase at 5 uM after 48 hrs by flow cytometry (reference value: 1.47%); format: functional, cell-based; conditions: Bel-7402
[10] = Cell cycle arrest in human Bel7402 cells assessed as cells accumulation at G1 phase at 5 uM after 48 hrs by flow cytometry (reference value: 62.60%); format: functional, cell-based; conditions: Bel-7402
Bel-7402 [11] = test: Induction of apoptosis in human Bel7402 cells assessed as apoptotic cells at 1 uM after 48 hrs by flow cytometry (reference value: 0.73%); format: functional
[12] = Cell cycle arrest in human Bel7402 cells assessed as cells accumulation at G2/M phase at 1 uM after 48 hrs by flow cytometry (reference value: 16.61%); format: functional, cell-based; conditions: Bel-7402
[13] = Cell cycle arrest in human Bel7402 cells assessed as cells accumulation at S phase at 0.5 uM after 48 hrs by flow cytometry (reference value: 13.99%); format: functional, cell-based; conditions: Bel-7402
[14] = Cell cycle arrest in human Bel7402 cells assessed as cells accumulation at Sub-G1 phase at 0.5 uM after 48 hrs by flow cytometry (reference value: 1.47%); format: functional, cell-based; conditions: Bel-7402
Bel-7402 [15] = test: Induction of apoptosis in human Bel7402 cells assessed as necrotic cells at 3 uM after 48 hrs by flow cytometry (reference value: 0.19%); format: functional
[16] = Cell cycle arrest in human Bel7402 cells assessed as cells accumulation at S phase at 3 uM after 48 hrs by flow cytometry (reference value: 13.99%); format: functional, cell-based; conditions: Bel-7402
[17] = Aqueous solubility of the compound in phosphate buffer at pH 7.4; format: physicochemical
Bel-7402 [18] = test: Induction of apoptosis in human Bel7402 cells assessed as apoptotic cells at 3 uM after 48 hrs by flow cytometry (reference value: 0.73%); format: functional
Bel-7402 [19] = test: Induction of apoptosis in human Bel7402 cells assessed as apoptotic cells at 0.5 uM after 48 hrs by flow cytometry (reference value: 0.73%); format: functional
[20] = Cell cycle arrest in human Bel7402 cells assessed as cells accumulation at G1 phase at 1 uM after 48 hrs by flow cytometry (reference value: 62.60%); format: functional, cell-based; conditions: Bel-7402
[21] = Cell cycle arrest in human Bel7402 cells assessed as cells accumulation at Sub-G1 phase at 3 uM after 48 hrs by flow cytometry (reference value: 1.47%); format: functional, cell-based; conditions: Bel-7402
[22] = Cell cycle arrest in human Bel7402 cells assessed as cells accumulation at G1 phase at 3 uM after 48 hrs by flow cytometry (reference value: 62.60%); format: functional, cell-based; conditions: Bel-7402
Bel-7402 [23] = test: Induction of apoptosis in human Bel7402 cells assessed as necrotic cells at 5 uM after 48 hrs by flow cytometry (reference value: 0.19%); format: functional
Bel-7402 [24] = test: Induction of apoptosis in human Bel7402 cells assessed as live cells at 1 uM after 48 hrs by flow cytometry (reference value: 98.65%); format: functional
Bel-7402 [25] = test: Induction of apoptosis in human Bel7402 cells assessed as live cells at 3 uM after 48 hrs by flow cytometry (reference value: 98.65%); format: functional
Bel-7402 [26] = test: Induction of apoptosis in human Bel7402 cells assessed as detection error cells at 0.5 uM after 48 hrs by flow cytometry (reference value: 0.43%); format: functional
Bel-7402 [27] = test: Induction of apoptosis in human Bel7402 cells assessed as detection error cells at 5 uM after 48 hrs by flow cytometry (reference value: 0.43%); format: functional
[28] = Cell cycle arrest in human Bel7402 cells assessed as cells accumulation at S phase at 1 uM after 48 hrs by flow cytometry (reference value: 13.99%); format: functional, cell-based; conditions: Bel-7402
[29] = Cell cycle arrest in human Bel7402 cells assessed as cells accumulation at S phase at 5 uM after 48 hrs by flow cytometry (reference value: 13.99%); format: functional, cell-based; conditions: Bel-7402
Bel-7402 [30] = test: Induction of apoptosis in human Bel7402 cells assessed as live cells at 0.5 uM after 48 hrs by flow cytometry (reference value: 98.65%); format: functional
Bel-7402 [31] = test: Induction of apoptosis in human Bel7402 cells assessed as necrotic cells at 1 uM after 48 hrs by flow cytometry (reference value: 0.19%); format: functional
[32] = Cell cycle arrest in human Bel7402 cells assessed as cells accumulation at G2/M phase at 5 uM after 48 hrs by flow cytometry (reference value: 16.61%); format: functional, cell-based; conditions: Bel-7402
Bel-7402 [33] = test: Induction of apoptosis in human Bel7402 cells assessed as detection error cells at 3 uM after 48 hrs by flow cytometry (reference value: 0.43%); format: functional
Bel-7402 [34] = test: Induction of apoptosis in human Bel7402 cells assessed as live cells at 5 uM after 48 hrs by flow cytometry (reference value: 98.65%); format: functional
[35] = Cell cycle arrest in human Bel7402 cells assessed as cells accumulation at G2/M phase at 3 uM after 48 hrs by flow cytometry (reference value: 16.61%); format: functional, cell-based; conditions: Bel-7402
Rattus norvegicus = organism: Rattus norvegicus; test: Inhibition of rat liver TrxR assessed as increase in absorbance at 10 uM by DTNB assay

pIC50 (MCF7): 4.25
pIC50 (A549): 4.37
pIC50 (HeLa): 4.55
pIC50 [2]: 5.02
Structure (SMILES): COc1cc(/C=C\c2ccc(-n3[se]c4ccccc4c3=O)cc2)cc(OC)c1
pIC50 [1]: 4.44

pIC50 (MCF7): 5.47
pIC50 (A549): 5.82
solubility [17]: > 100 µM
pIC50 (HeLa): 5.82
pIC50 [2]: 5.51
Structure (SMILES): COc1ccc(/C=C/c2ccc(-n3[se]c4ccccc4c3=O)cc2)cc1OC
Activity [3]: 22.2%
Activity [4]: 5.15%
Activity (Bel-7402 [5]): 1.29%
Activity (Bel-7402 [6]): 53.63%
Activity (Bel-7402 [7]): 3.45%
Activity [8]: 55.8%
Activity [9]: 6.69%
Activity [10]: 37%
Activity (Bel-7402 [11]): 13.55%
Activity [12]: 33.8%
Activity [13]: 14%
Activity [14]: 0.2%
Activity (Bel-7402 [15]): 5.49%
Activity [16]: 9.57%
Activity (Bel-7402 [18]): 36.71%
pIC50 [1]: 6.00
Activity (Bel-7402 [19]): 6.73%
Activity [20]: 49%
Activity [21]: 5.47%
Activity [22]: 40.4%
Activity (Bel-7402 [23]): 5.26%
Activity (Bel-7402 [24]): 79.95%
Activity (Bel-7402 [25]): 55.41%
Activity (Bel-7402 [26]): 2.22%
Activity (Bel-7402 [27]): 2.95%
Activity [28]: 6.93%
Activity [29]: 8.32%
Activity (Bel-7402 [30]): 89.75%
Activity (Bel-7402 [31]): 3.04%
Activity [32]: 44.2%
Activity (Bel-7402 [33]): 2.39%
Activity (Bel-7402 [34]): 38.16%
Activity [35]: 42%

inhibition (Rattus norvegicus): 31.2%
solubility [17]: < 50 µM
Structure (SMILES): COc1cc(/C=C/c2ccc(-n3[se]c4ccc(Cl)cc4c3=O)cc2)cc(OC)c1

Structure (SMILES): O=c1c2ccccc2[se]n1-c1ccc(/C=C/c2ccccc2)cc1
pIC50 (MCF7): 4.61
inhibition (Rattus norvegicus): 22.4%
pIC50 (A549): 4.62
pIC50 [1]: 4.91
pIC50 (HeLa): 4.45

pIC50 (MCF7): 4.05
pIC50 (A549): 4.28
pIC50 (HeLa): 4.50
pIC50 [2]: 5.12
Structure (SMILES): COc1cc(/C=C/c2ccc(-n3[se]c4cc(OC)c(OC)cc4c3=O)cc2)cc(OC)c1
pIC50 [1]: 4.60

pIC50 (MCF7): 4.77
inhibition (Rattus norvegicus): 38.4%
pIC50 (A549): 5.16
solubility [17]: < 20 µM
pIC50 (HeLa): 4.92
Structure (SMILES): COc1ccc(/C=C/c2ccc(-n3[se]c4ccc(Cl)cc4c3=O)cc2)cc1OC
pIC50 [1]: 5.21

pIC50 (MCF7): 5.11
pIC50 (A549): 5.43
solubility [17]: > 100 µM
pIC50 (HeLa): 5.42
pIC50 [2]: 5.08
Structure (SMILES): COc1cc(/C=C/c2ccc(-n3[se]c4ccccc4c3=O)cc2)cc(OC)c1
pIC50 [1]: 5.46
